# Results reported in patent US12285407B2, “Bis-indolylmethane derivatives and uses thereof” (The University of The West Indies, priority 2018, dated 2025).
# Read-outs that look alike come from different tables or passages of the source.
# What was measured:
# Escherichia coli [1] = assay: Checkerboard synergy (FICI) of antibiotics with SP-BIM; design: MIC SP-BIM 13 only / MIC in combination: Antibiotic: unit not given beside the values; settings: for MIC: 24 h
# Enterococcus faecium = assay: as above; assay type: cell-based; settings: Enterococcus faecium, Enterococcus faecium; for MIC: 24 h, antibiotic alone, read-out: MIC antibiotic only
# Klebsiella pneumoniae [2] = assay: as above; assay type: cell-based; settings: for MIC: 24 h, antibiotic alone, read-out: MIC antibiotic only
# Streptococcus pneumoniae = assay: as above; assay type: cell-based; settings: for MIC: 24 h, antibiotic alone, read-out: MIC antibiotic only
# Klebsiella pneumoniae [3] = assay: Adjuvant broth microdilution (antibiotic MIC with SP-BIM at 50 μg/mL); assay type: cell-based; settings: Klebsiella pneumoniae; antibiotic alone; Table 7; read-out: MIC of antibiotic, No compound
# Staphylococcus aureus = assay: Checkerboard synergy (FICI) of antibiotics with SP-BIM; assay type: cell-based; settings: Staphylococcus aureus, Staphylococcus aureus; for MIC: 24 h, antibiotic alone, read-out: MIC antibiotic only
# Bacillus cereus = assay: as above; assay type: cell-based; settings: for MIC: 24 h, antibiotic alone, read-out: MIC antibiotic only
# Candida albicans = assay: as above; design: MIC SP-BIM 13 only / MIC in combination: Antibiotic / MIC antibiotic only: unit not given beside the values
# Escherichia coli [4] = assay: microbe, parasite or virus in culture; assay type: cell-based; settings: read-out: MIC of antibiotic, No compound
# MRSA = assay: Adjuvant broth microdilution (antibiotic MIC with SP-BIM at 50 μg/mL); assay type: cell-based, Staphylococcus aureus; settings: Staphylococcus aureus, antibiotic alone, Table 4, read-out: MIC of antibiotic, No compound
# [5] = MIC of the antibiotic in combination with SP-BIM 13
# [6] = SP-BIM 9 in combination with the labelled antibiotic
# [7] = SP-BIM 13 in combination with the labelled antibiotic
# [8] = antibiotic in combination with SP-BIM 9
# [9] = antibiotic in combination with SP-BIM 13
# [10] = Streptococcus pneumonia (title: Streptococcus pyogenes), antibiotic + SP-BIM 9
# [11] = Streptococcus pneumoniae, antibiotic + SP-BIM 13
structure (smiles),measurement,setting,value
"COc1cc(Cc2cnc(N)nc2N)cc(OC)c1OC [Trimethoprim, trimethoprim]",MIC,"Escherichia coli [1]; read-out: MIC antibiotic only, Escherichia coli, antibiotic alone",2 µg/mL
same,MIC,"Escherichia coli [1]; read-out: MIC antibiotic only, Escherichia coli, antibiotic alone, SP-BIM 9 checkerboard",2 µg/mL
same,MIC in combination: Antibiotic,Escherichia coli [1]; [5],8
same,FIC of SP-BIM 9,Escherichia coli [1]; [6],0.128
same,FIC of SP-BIM 13,Escherichia coli [1]; [7],1.0
same,Interpretation,Escherichia coli [1]; antibiotic + SP-BIM 9,Antagonistic (Antagonistic: FICI≥4.0)
same,Σ FIC,Escherichia coli [1]; antibiotic + SP-BIM 9,<4.1
same,Interpretation,Escherichia coli [1]; antibiotic + SP-BIM 13,Antagonistic (Antagonistic: FICI≥4.0)
same,Σ FIC,Escherichia coli [1]; antibiotic + SP-BIM 13,<5.0
same,"MIC in combination, Antibiotic",Escherichia coli [1]; [8],8 µg/mL
same,FIC of antibiotic,Escherichia coli [1]; combination with SP-BIM 13,4.0
same,FIC of antibiotic,Escherichia coli [1]; in combination with SP-BIM 9,4
same,MIC,Enterococcus faecium; SP-BIM 9 checkerboard,4 µg/mL
same,MIC,Enterococcus faecium; SP-BIM 13 checkerboard,4 µg/mL
same,FIC of SP-BIM 13,Enterococcus faecium; [7],1.0
same,Interpretation,Enterococcus faecium; antibiotic + SP-BIM 13,Antagonistic (Antagonistic: FICI≥4.0)
same,Σ FIC,Enterococcus faecium; antibiotic + SP-BIM 13,5.0
same,"MIC in combination, Antibiotic",Enterococcus faecium; [9],16 µg/mL
same,FIC of antibiotic,Enterococcus faecium; in combination with SP-BIM 13,4.0
same,MIC,Klebsiella pneumoniae [2]; SP-BIM 9 checkerboard,8 µg/mL
same,MIC,Klebsiella pneumoniae [2]; SP-BIM 13 checkerboard,8 µg/mL
same,FIC of SP-BIM 9,Klebsiella pneumoniae [2]; [6],0.5
same,FIC of SP-BIM 13,Klebsiella pneumoniae [2]; [7],1.0
same,Interpretation,Klebsiella pneumoniae [2]; antibiotic + SP-BIM 9,Indifferent (Indifferent: FICI>1.0-4.0)
same,Σ FIC,Klebsiella pneumoniae [2]; antibiotic + SP-BIM 9,<1.5
same,Interpretation,Klebsiella pneumoniae [2]; antibiotic + SP-BIM 13,Indifferent (Indifferent: FICI>1.0-4.0)
same,Σ FIC,Klebsiella pneumoniae [2]; antibiotic + SP-BIM 13,<3.0
same,"MIC in combination, Antibiotic",Klebsiella pneumoniae [2]; [8],8 µg/mL
same,"MIC in combination, Antibiotic",Klebsiella pneumoniae [2]; [9],16 µg/mL
same,FIC of antibiotic,Klebsiella pneumoniae [2]; in combination with SP-BIM 9,1
same,FIC of antibiotic,Klebsiella pneumoniae [2]; in combination with SP-BIM 13,2.0
same,FIC of SP-BIM 9,"Streptococcus pneumoniae; Streptococcus pneumonia (title: Streptococcus pyogenes), SP-BIM 9 in combination with the labelled antibiotic",0.06
same,Interpretation,Streptococcus pneumoniae; [10],Synergy (Synergy: FICI≤0.5)
same,Σ FIC,Streptococcus pneumoniae; [10],<0.31
same,"MIC in combination, Antibiotic","Streptococcus pneumoniae; Streptococcus pneumonia (title: Streptococcus pyogenes), antibiotic in combination with SP-BIM 9",8 µg/mL
same,FIC of antibiotic,"Streptococcus pneumoniae; Streptococcus pneumonia (title: Streptococcus pyogenes), in combination with SP-BIM 9",0.25
same,MIC,"Streptococcus pneumoniae; Streptococcus pneumoniae, Streptococcus pneumonia (title: Streptococcus pyogenes), SP-BIM 9 checkerboard",32 µg/mL
same,MIC,"Streptococcus pneumoniae; Streptococcus pneumoniae, Streptococcus pneumoniae, SP-BIM 13 checkerboard",32 µg/mL
same,FIC of SP-BIM 13,"Streptococcus pneumoniae; Streptococcus pneumoniae, SP-BIM 13 in combination with the labelled antibiotic",1.0
same,Interpretation,Streptococcus pneumoniae; [11],Antagonistic (Antagonistic: FICI≥4.0)
same,Σ FIC,Streptococcus pneumoniae; [11],<4.9
same,"MIC in combination, Antibiotic","Streptococcus pneumoniae; Streptococcus pneumoniae, antibiotic in combination with SP-BIM 13",125 µg/mL
same,FIC of antibiotic,"Streptococcus pneumoniae; Streptococcus pneumoniae, in combination with SP-BIM 13",3.9
same,MIC,Klebsiella pneumoniae [3],16 µg/mL
same,MIC,Staphylococcus aureus; SP-BIM 9 checkerboard,1 µg/mL
same,MIC,Staphylococcus aureus; SP-BIM 13 checkerboard,1 µg/mL
same,FIC of SP-BIM 9,Staphylococcus aureus; [6],0.02
same,FIC of SP-BIM 13,Staphylococcus aureus; [7],0.5
same,Interpretation,Staphylococcus aureus; antibiotic + SP-BIM 9,Indifferent (Indifferent: FICI>1.0-4.0)
same,Σ FIC,Staphylococcus aureus; antibiotic + SP-BIM 9,<2.02
same,Interpretation,Staphylococcus aureus; antibiotic + SP-BIM 13,Antagonistic (Antagonistic: FICI≥4.0)
same,Σ FIC,Staphylococcus aureus; antibiotic + SP-BIM 13,4.5
same,"MIC in combination, Antibiotic",Staphylococcus aureus; [8],2.0 µg/mL
same,"MIC in combination, Antibiotic",Staphylococcus aureus; [9],4 µg/mL
same,FIC of antibiotic,Staphylococcus aureus; in combination with SP-BIM 9,2.00
same,FIC of antibiotic,Staphylococcus aureus; in combination with SP-BIM 13,4.0
same,MIC,Bacillus cereus; SP-BIM 9 checkerboard,> 250 µg/mL
same,MIC,Bacillus cereus; SP-BIM 13 checkerboard,250 µg/mL
same,"MIC in combination, SP-BIM 9",Bacillus cereus; SP-BIM 9 concentration in combination with the labelled antibiotic,16 µg/mL
same,FIC of SP-BIM 9,Bacillus cereus; [6],0.064
same,FIC of SP-BIM 13,Bacillus cereus; [7],1.0
same,Interpretation,Bacillus cereus; antibiotic + SP-BIM 9,Synergy (Synergy: FICI≤0.5)
same,Σ FIC,Bacillus cereus; antibiotic + SP-BIM 9,<0.1
same,Interpretation,Bacillus cereus; antibiotic + SP-BIM 13,Indifferent (Indifferent: FICI>1.0-4.0)
same,Σ FIC,Bacillus cereus; antibiotic + SP-BIM 13,2.0
same,"MIC in combination, Antibiotic",Bacillus cereus; [8],2 µg/mL
same,"MIC in combination, Antibiotic",Bacillus cereus; [9],250 µg/mL
same,FIC of antibiotic,Bacillus cereus; in combination with SP-BIM 9,0.008
same,FIC of antibiotic,Bacillus cereus; in combination with SP-BIM 13,1.00
same,MIC,"Candida albicans; 24 h, read-out: MIC antibiotic only",> 250 µg/mL
same,MIC in combination: Antibiotic,Candida albicans; [5],250
same,FIC of SP-BIM 13,Candida albicans; [7],1.0
same,Interpretation,Candida albicans; antibiotic + SP-BIM 13,Indifferent (Indifferent: FICI>1.0-4.0)
same,Σ FIC,Candida albicans; antibiotic + SP-BIM 13,<2.0
same,FIC of antibiotic,Candida albicans; combination with SP-BIM 13,1.0
same,MIC,Escherichia coli [4],2 µg/mL
same,MIC,MRSA,250 µg/mL
